From patent US20250002967A1, “METHODS FOR DETECTING MICROORGANISMS BY ADDING A FLUORESCENT DYE DIRECTLY TO THE SOLID GROWTH MEDIUM” (DIAMIDEX, priority 2021, published 2025)

Tests used:
[1] = test system: Candida albicans ATCC® 10231™; assay: Enumeration of colonies using the method of the invention; type: cell-based; details: C. albicans; SDA agar; 35° C.; microcolony count
[2] = test system: Escherichia coli ATCC® 8739™; assay: as above; type: cell-based; details: E. coli; TSA agar; 35° C.; microcolony count
[3] = test system: Aspergillus brasiliensis ATCC® 16404™; assay: as above; type: cell-based; details: A. brasiliensis; SDA agar; 35° C.; microcolony count
[4] = test system: P. mirabilis ATCC® 29906™; assay: Enumeration of bacteria implicated in uncomplicated and complicated UTI; type: cell-based, Proteus mirabilis; details: black MCE membrane
E. faecalis ATCC® 19433™ = assay: as above; type: cell-based, Enterococcus faecalis; details: black MCE membrane
S. aureus ATCC® 6538™ = assay: as above; type: cell-based, Staphylococcus aureus; details: black MCE membrane
E. coli ATCC®8739™ = assay: as above; type: cell-based, Escherichia coli; details: black MCE membrane; for Time detection (minimal timing necessary to enumerate microcolonies): 37° C.
[5] = test system: K. pneumoniae ATCC® 13883™; assay: as above; type: cell-based, Klebsiella pneumoniae; details: black MCE membrane; for Time detection (minimal timing necessary to enumerate microcolonies): 37° C.

SMILES	Counting Scan at 17 h on MCE membrane with fluorochrome [1]	Counting Scan at 17 h on PVDF membrane with fluorochrome [1]	Counting Scan at 17 h on MCE membrane with fluorochrome [2]	Counting Scan at 17 h on PVDF membrane with fluorochrome [2]	Counting Scan at 17 h on MCE membrane with fluorochrome [3]	Counting Scan at 17 h on PVDF membrane with fluorochrome [3]	other results
CC[N+]1=C(C=CC=CC=C2N(CCCCCC(=O)O)c3ccc(S(=O)(=O)O)cc3C2(C)C)C(C)(C)c2cc(S(=O)(=O)[O-])ccc21 [Sulfo-Cy5-Acid]	13	13	114	120	25	34	
Cc1c(CC(=O)ON2C(=O)CCC2=O)c(=O)oc2cc(N)c(S(=O)(=O)O)cc12 [AF350-NHS Ester, 7-amino-3-[2-(2,5-dioxopyrrolidin-1-yl)oxy-2-oxoethyl]-4-methyl-2-oxochromene-6-sulfonic acid]	9	20	109	107	25	19	
CCC(=O)c1ccc2cc(N(C)C)ccc2c1 [Prodan, 6-propionyl-2-dimethyaminonaphthalene]	11	17	118	126		6	
N=C(N)c1ccc(-c2cc3ccc(C(=N)N)cc3[nH]2)cc1 [DAPI, 4′,6-diamidino-2-phenylindole]							percentage of detected objects compared to standard procedure timing (24 h at 37° C.) ([4]; Columbia Blood): (94%); percentage of detected objects compared to standard procedure timing (24 h at 37° C.) ([4]; TSA): (98%); Time detection (minimal timing necessary to enumerate microcolonies) ([4]; TSA, 37° C.): 10 h; percentage of detected objects compared to standard procedure timing (24 h at 37° C.) (E. faecalis ATCC® 19433™; Columbia Blood): (100%); percentage of detected objects compared to standard procedure timing (24 h at 37° C.) (E. faecalis ATCC® 19433™; TSA): (100%); Time detection (minimal timing necessary to enumerate microcolonies) (E. faecalis ATCC® 19433™; TSA, 37° C.): 7 h; percentage of detected objects compared to standard procedure timing (24 h at 37° C.) (S. aureus ATCC® 6538™; Columbia Blood): (100%); percentage of detected objects compared to standard procedure timing (24 h at 37° C.) (S. aureus ATCC® 6538™; TSA): (100%); Time detection (minimal timing necessary to enumerate microcolonies) (S. aureus ATCC® 6538™; TSA, 37° C.): 8 h; percentage of detected objects compared to standard procedure timing (24 h at 37° C.) (E. coli ATCC®8739™; Columbia Blood): (100%); percentage of detected objects compared to standard procedure timing (24 h at 37° C.) (E. coli ATCC®8739™; MacConkey): (98%); Time detection (minimal timing necessary to enumerate microcolonies) (E. coli ATCC®8739™; MacConkey): 10 h; percentage of detected objects compared to standard procedure timing (24 h at 37° C.) (E. coli ATCC®8739™; TSA): (100%); Time detection (minimal timing necessary to enumerate microcolonies) (E. coli ATCC®8739™; TSA): 6 h; percentage of detected objects compared to standard procedure timing (24 h at 37° C.) ([5]; K. pneumonia, Columbia Blood): (100%); percentage of detected objects compared to standard procedure timing (24 h at 37° C.) ([5]; K. pneumonia, TSA): (100%); Time detection (minimal timing necessary to enumerate microcolonies) ([5]; K. pneumonia, Columbia Blood): 10 h; Time detection (minimal timing necessary to enumerate microcolonies) ([5]; K. pneumonia, TSA): 10 h; percentage of detected objects compared to standard procedure timing (24 h at 37° C.) ([5]; K. pneumoniae, MacConkey): (100%); Time detection (minimal timing necessary to enumerate microcolonies) ([5]; K. pneumoniae, MacConkey): 11 h
CN(C)CCNc1ccc(O)c2c1C(=O)c1c(O)ccc(NCCN(C)C)c1C2=O [DRAQ5, 1,5-bis (2-(di-methylamino)ethylamino)-4,8-dihydroxyanthracene-9,10-dione]			185	162			
Cc1ccc2n1[B-](F)(F)[N+]1=C(CCCCCCCCCCCC(=O)O)C=CC1=C2 [BODIPY 500/510, 12-(2,2-difluoro-12-methyl-1-aza-3-azonia-2-boranuidatricyclo[7.3.0.03,7]dodeca-3,5,7,9,11-pentaen-4-yl)dodecanoic acid]				112			
